Each structure is given as a SMILES string.

A short description of the data set: Solubility in toluene.
The mark [1] stands for this setting: 20 mg mixed with toluene (1 mL).
The mark [2] stands for this setting: organic solvent or mixture, thermodynamic from solid.

For orientation: Solubility means the concentration that dissolves in the medium under given conditions. As for `CCCCCCCCc1cc2cc3ccc4cc5cc(CCCCCCCC)n(C)c5cc4c3cc2n1C` [Compound 3], the Solubility result under setting [1] was “A (Completely dissolved.)”. Same read-out and setting: the entry for `CCCCCCCCCCCCc1cc2cc3ccc4cc5cc(CCCCCCCCCCCC)sc5cc4c3cc2s1` [Compound 5] is “A (Completely dissolved.)”; for `CCCCCCCCc1ccc(-c2cc3cc4ccc5cc6cc(-c7ccc(CCCCCCCC)cc7)sc6cc5c4cc3s2)cc1` [Compound 11] it is “A (Completely dissolved.)”. The same measure, in the same setting: the entry for `CCCCCCCCc1ccc(-c2cc3cc4ccc5cc6cc(-c7ccc(CCCCCCCC)s7)sc6cc5c4cc3s2)s1` [Compound 16] is “A (Completely dissolved.)”; for `CCCCCCCCc1csc(-c2cc3cc4ccc5cc6cc(-c7cc(CCCCCCCC)cs7)sc6cc5c4cc3s2)c1` [Compound 24] it is “A (Completely dissolved.)”. As for `Cc1c(C)n(-c2ccccc2)c2c1ccc1c3ccc4c(C)c(C)n(-c5ccccc5)c4c3ccc12` [compound 1, reference compound], the Solubility under setting [2] was under 20 mg/mL.

For the molecule `c1ccc(-n2c3ccccc3c3cc4ccc5cc6c7ccccc7n(-c7ccccc7)c6cc5c4cc32)cc1` [compound 2, reference compound], the Solubility under setting [2] was under 20 mg/mL.

The record behind these values is US20160315271A1, “ORGANIC TRANSISTOR, COMPOUND, ORGANIC SEMICONDUCTOR MATERIAL FOR NON-LIGHT-EMITTING ORGANIC SEMICONDUCTOR DEVICE, MATERIAL FOR ORGANIC TRANSISTOR, COATING SOLUTION FOR NON-LIGHT-EMITTING ORGANIC SEMICONDUCTOR DEVICE, AND ORGANIC SEMICONDUCTOR FILM FOR NON-LIGHT-EMITTING ORGANIC SEMICONDUCTOR DEVICE” (FUJIFILM Corporation, priority 2014, published 2016).
